Key:
β-globin gene promoter = experiment: ChIP assay, histone acetylation in β-globin gene promoter; assay type: cell-based, human
Description: ChIP assay was performed as previously published by our group with immunoprecipitations for AcH3, AcH4 and TBP antibodies (Santa Cruz Biotechnology) and rabbit IgG as a control. Primers used to quantify in vivo chromatin modifications are as follows: locus control region DNase I hypersensitive site 2 (LCR-HS2) forward […] (SEQ ID NO:1) and reverse […] (SEQ ID NO:2), γ-globin promoter (forward CTGAAACGGTCCCTGGCTA (SEQ ID NO:3), reverse […] (SEQ ID NO:4)), and β-globin promoter (forward […] (SEQ ID NO:5), reverse […] (SEQ ID NO:6)).

[1] = tested on: γ-globin mRNA in K562 cells; experiment: γ-globin transcription by RT-qPCR in K562 cells; assay type: cell-based; details: 48 h
Description: Initial studies were conducted in K562 cells to determine the ability of AN-233 to induce γ-globin transcription and HbF expression. K562 cells display characteristics of erythroid cells including expression of the ε, γ and α globin genes and these cells are useful for initial drug screening and discovery of potential HbF inducers.
K562 cells were treated with AN-233 for 48 h and globin gene transcription was analyzed by RT-qPCR. […]
(§1) K562 cells were cultured in Iscove's Modified Dulbecco medium (IMDM) with 10% fetal bovine serum, penicillin (100 U/mL) and streptomycin (0.1 mg/mL). Drug inductions for K562 cells were conducted for 48 h and cell viability evaluated with 0.4% Trypan blue exclusion. Cell counts were performed a dual chamber apparatus and the percentage viability obtained using an Automated Cell Counter (Bio-Rad).
Total RNA was extracted from cells using Trizol (Ambion, Carlsbad CA) and analyzed by RT-qPCR as previously published by our group. Gene-specific primers were used to quantify mRNA levels for γ-globin, β-globin and internal control glyceraldehyde-3-phosphate de-hydrogenase (GAPDH). All mRNA levels were normalized to GAPDH before analysis.

anemic C57BL mouse model = details: cited from earlier work
[2] = tested on: HbF in sickle erythroid precursors; experiment: Western blot of HbF in sickle erythroid precursors; assay type: cell-based, human; details: sickle erythroid precursors, 0.25 mM
Description: For primary cultures, erythroid precursors were generated from peripheral blood mononuclear cells isolated from discard blood of sickle patients under an IRB exempt protocol. These cells were cultured in a two-phase liquid culture system previously published (Li, B., et al., Haematologica 103:e384-e387 (2018)).
During phase 1, cells were grown in Iscove's Dulecco Media with 15% fetal bovine serum, 15% human AB serum, 10 ng/mL interleukin-3, 50 ng/mL stem cell factor and 2 IU/mL of erythropoietin (Peprotech, Rocky Hill NJ). Phase 2 of culture initiated on day 7 with a similar medium without stem cell factor and interleukin-3. On day 8, erythroid precursors were treated with AN-233 (0.125 mM and 0.25 mM), ethanol (EtOH; […] and 0.016%) and the positive control HU (100 μM) for 48 h and harvested for the various analyses.
Western blot analysis was performed using whole cell lysates generated with RIPA buffer (ThermoScientific, Rockford, IL) supplemented with proteinase and phosphatase inhibitor cocktails. For histone acetylation studies, nuclear lysates were prepared by suspending cells in buffer containing 20 mM HEPES, pH 7.9, 50 mM KCl, 420 mM NaCl, 0.1 mM EDTA, 1 mM DTT, 10% glycerol and protease inhibitor mixture for 30 min, followed by centrifugation. […]

p38 MAPK = experiment: Western blot of phosphorylated p38 MAPK in K562 cells; assay type: cell-based; details: 0.25 mM
Description: Western blot analysis was performed using whole cell lysates generated with RIPA buffer (ThermoScientific, Rockford, IL) supplemented with proteinase and phosphatase inhibitor cocktails. For histone acetylation studies, nuclear lysates were prepared by suspending cells in buffer containing 20 mM HEPES, pH 7.9, 50 mM KCl, 420 mM NaCl, 0.1 mM EDTA, 1 mM DTT, 10% glycerol and protease inhibitor mixture for 30 min, followed by centrifugation. Antibodies against HbF (51-7), HbA (37-8), and Tata binding protein (TBP; N-12) were purchased from Santa Cruz Biotechnology (Dallas TX); antibodies against β-actin (A5316) and rabbit IgG (18140) were purchased from Sigma (St. Louis MO). Acetylated histone H3 (AcH3; 06-599) and AcH4 (06-866) antibodies were purchased from Millipore (Burlington, MA).
The second active metabolite of AN-233 hydrolysis is BA. It was previously reported that HbF induction by BA occurs through p38 MAPK activation.

β-YAC transgenic mice = experiment: Toxicity, body weight, blood counts and reticulocytes in β-YAC transgenic mice
Description: The β-YAC is a transgenic mouse model containing the full-length 81 kb human β-globin gene locus including the LCR and surrounding region. The five functional human globin genes 5′-ε-Gγ-Aγ-[…]-β-3′ are present and undergo normal developmental regulation with the γ-globin gene silenced shortly after birth. β-YAC mice (5-6 months old) were administered AN-233 suspended in water (200 or 300 mg/kg) 5 days/week for 4 weeks by intraperitoneal injection; five mice per group with 3 males and 2 females were treated. Hydroxyurea (100 mg/kg) was included as a positive control. Blood was collected by tail bleed at week 0, 2 and 4 and analyzed for automated complete blood counts with differential using a Micros 60 machine (HORIBA Medical/ABX Diagnostics). The level of F-cells and MFI were performed by flow cytometry. For reticulocyte counts, whole blood was stained with acridine orange and flow cytometry performed on an LSR-II flow cytometer (BD Biosciences).

HbF in K562 cells = experiment: HbF positive cells (F-cells) by flow cytometry in K562 cells; assay type: cell-based; details: K562 cells, 0.125 and 0.25 mM, 48 h, maximum; 10% in EtOH treated controls
Description: as §1
To measure percent HbF positive cells (F-cells), K562 cells and erythroid precursors were fixed with 1% formaldehyde, permeabilized with ice-cold acetone:methanol (4:1 ratio) and stained with fluorescein isothiocyanate (FITC) anti-HbF antibody (ab19365, Abcam Cambridge MA) and isotype control IgG antibody (MBS524511, MyBioSource, San Diego CA) was used to detect non-specific staining. The F-cells levels and HbF protein levels measured by mean fluorescence intensity (MFI) were analyzed on an LSR-II flow cytometer (BD Biosciences, San Jose CA) and FlowJo analysis to generate quantitative data.

Structure (SMILES): CCCC(=O)OC(C)OC(=O)CCC(=O)CN (centres unmarked) [AN-233, 1-(butyryloxy)ethyl-5-amino-4-oxopentanoate]
- histone acetylation at the β-globin gene promoter (β-globin gene promoter): no significant changes
- increase in γ-globin mRNA levels ([1]; 0.125 mM): 1.8 fold
- increase in γ-globin mRNA levels ([1]; 0.25 mM): 2.0 fold
- toxicity (anemic C57BL mouse model; anemic C57BL mice, oral, 4 weeks, up to 400 mg/kg): without toxicity
- hemoglobin levels (anemic C57BL mouse model; anemic C57BL mice, oral, 4 weeks): improved
- histone acetylation in spleen tissue (anemic C57BL mouse model; tissue harvested 4 to 6 h after one oral dose): histone hyper-acetylation
- increase in HbF protein by Western blot [2]: 2.6 fold
- increase in phosphorylated p38 MAPK (p38 MAPK): 1.4 fold
- anti-proliferative effects on erythropoiesis (β-YAC transgenic mice; mouse, in vivo): without observing anti-proliferative effects
- increase in reticulocytes (β-YAC transgenic mice; β-YAC mice, 300 mg/kg ip, week 4, p=0.01): 1.8 fold
- F-cells (HbF in K562 cells): 19%

Source: patent publication US20240216320A1, “COMPOSITIONS AND METHODS FOR TREATING SICKLE CELL DISEASE” (Augusta University Research Institute, Inc., priority 2019, published 2024)
